Test results: US8192962B2, “Processes for detecting toxic substances” (Daikin Industries, Ltd., priority 2001, dated 2012)

System: Metabolism protein genes
Assay: DNA chip mRNA expression in yeast, metabolism protein genes (Table 7)
Type: cell-based, Saccharomyces cerevisiae S288C
Procedure, shortened: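 Value is the scanned fluorescence intensity ratio of exposed versus chemical-free cells. Log-phase S288C yeast in YPD at 25° C. received one toxic substance for two hours, dosed to slow growth without killing; Cy3/Cy5-labeled cDNA from oligo-dT-purified mRNA was hybridized to a whole-genome chip at 65° C.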

`N#Cc1c(Cl)c(Cl)c(Cl)c(C#N)c1Cl` [(9), 2,4,5,6-tetrachloro-1,3-benzenedicarbonitrile] was tested, and the “The level of expressed mRNA in the presence of chemical substance/The level of expressed mRNA in the absence of chemical substance” value (yeast gene YAL012W) was 4.7, the “The level of expressed mRNA in the presence of chemical substance/The level of expressed mRNA in the absence of chemical substance” value (yeast gene YAL038W) was 0.1 and the “The level of expressed mRNA in the presence of chemical substance/The level of expressed mRNA in the absence of chemical substance” value (yeast gene YAL044C) was 0.4. The “The level of expressed mRNA in the presence of chemical substance/The level of expressed mRNA in the absence of chemical substance” value (yeast gene YAL054C) was 8.9, the “The level of expressed mRNA in the presence of chemical substance/The level of expressed mRNA in the absence of chemical substance” value (yeast gene YAR071W) was 0.3 and the “The level of expressed mRNA in the presence of chemical substance/The level of expressed mRNA in the absence of chemical substance” value (yeast gene YBL001C) was 1.5. For the same compound, the “The level of expressed mRNA in the presence of chemical substance/The level of expressed mRNA in the absence of chemical substance” value (yeast gene YBL033C) was 6.6, the “The level of expressed mRNA in the presence of chemical substance/The level of expressed mRNA in the absence of chemical substance” value (yeast gene YBL086C) was 3.3 and the “level of expressed mRNA in the presence/in the absence of chemical substance” value (yeast gene YBR003W) was 1.0. The “level of expressed mRNA in the presence/in the absence of chemical substance” value (yeast gene YBR011C) was 2.2, the “The level of expressed mRNA in the presence of chemical substance/The level of expressed mRNA in the absence of chemical substance” value (yeast gene YBR014C) was 1.3 and the “The level of expressed mRNA in the presence of chemical substance/The level of expressed mRNA in the absence of chemical substance” value (yeast gene YBR023C) was 0.3. For the same compound, the “The level of expressed mRNA in the presence of chemical substance/The level of expressed mRNA in the absence of chemical substance” value (yeast gene YBR029C) was 2.0, the “The level of expressed mRNA in the presence of chemical substance/The level of expressed mRNA in the absence of chemical substance” value (yeast gene YBR035C) was 2.2 and the “The level of expressed mRNA in the presence of chemical substance/The level of expressed mRNA in the absence of chemical substance” value (yeast gene YBR068C) was 0.8. The “The level of expressed mRNA in the presence of chemical substance/The level of expressed mRNA in the absence of chemical substance” value (yeast gene YBR183W) was 0.4, the “The level of expressed mRNA in the presence of chemical substance/The level of expressed mRNA in the absence of chemical substance” value (yeast gene YBR222C) was 0.7 and the “The level of expressed mRNA in the presence of chemical substance/The level of expressed mRNA in the absence of chemical substance” value (yeast gene YBR256C) was 18.1. The “The level of expressed mRNA in the presence of chemical substance/The level of expressed mRNA in the absence of chemical substance” value (yeast gene YBR296C) was 0.4, the “The level of expressed mRNA in the presence of chemical substance/The level of expressed mRNA in the absence of chemical substance” value (yeast gene YCL009C) was 0.9 and the “The level of expressed mRNA in the presence of chemical substance/The level of expressed mRNA in the absence of chemical substance” value (yeast gene YCL064C) was 1.7. The “level of expressed mRNA in the presence/in the absence of chemical substance” value (yeast gene YCR010C) was 0.9, the “level of expressed mRNA in the presence/in the absence of chemical substance” value (yeast gene YCR034W) was 0.1 and the “The level of expressed mRNA in the presence of chemical substance/The level of expressed mRNA in the absence of chemical substance” value (yeast gene YCR036W) was 2.6. For the same compound, the “The level of expressed mRNA in the presence of chemical substance/The level of expressed mRNA in the absence of chemical substance” value (yeast gene YCR048W) was 0.8, the “The level of expressed mRNA in the presence of chemical substance/The level of expressed mRNA in the absence of chemical substance” value (yeast gene YCR098C) was 1.4 and the “The level of expressed mRNA in the presence of chemical substance/The level of expressed mRNA in the absence of chemical substance” value (yeast gene YDL124W) was 3.3. The “The level of expressed mRNA in the presence of chemical substance/The level of expressed mRNA in the absence of chemical substance” value (yeast gene YDR009W) was 1.3, the “The level of expressed mRNA in the presence of chemical substance/The level of expressed mRNA in the absence of chemical substance” value (yeast gene YDR019C) was 0.4 and the “level of expressed mRNA in the presence/in the absence of chemical substance” value (yeast gene YDR050C) was 0.4. The “level of expressed mRNA in the presence/in the absence of chemical substance” value (yeast gene YDR123C) was 0.5, the “level of expressed mRNA in the presence/in the absence of chemical substance” value (yeast gene YDR178W) was 0.9 and the “level of expressed mRNA in the presence/in the absence of chemical substance” value (yeast gene YDR277C) was 0.2. The “level of expressed mRNA in the presence/in the absence of chemical substance” value (yeast gene YDR284C) was 0.9, the “level of expressed mRNA in the presence/in the absence of chemical substance” value (yeast gene YDR345C) was 0.2 and the “The level of expressed mRNA in the presence of chemical substance/The level of expressed mRNA in the absence of chemical substance” value (yeast gene YDR380W) was 0.2. For the same compound, the “level of expressed mRNA in the presence/in the absence of chemical substance” value (yeast gene YDR400W) was 1.1, the “level of expressed mRNA in the presence/in the absence of chemical substance” value (yeast gene YDR408C) was 0.3 and the “level of expressed mRNA in the presence/in the absence of chemical substance” value (yeast gene YDR483W) was 0.4. For the same compound, the “The level of expressed mRNA in the presence of chemical substance/The level of expressed mRNA in the absence of chemical substance” value (yeast gene YDR487C) was 2.7, the “The level of expressed mRNA in the presence of chemical substance/The level of expressed mRNA in the absence of chemical substance” value (yeast gene YDR497C) was 0.4 and the “The level of expressed mRNA in the presence of chemical substance/The level of expressed mRNA in the absence of chemical substance” value (yeast gene YDR502C) was 1.6. The “The level of expressed mRNA in the presence of chemical substance/The level of expressed mRNA in the absence of chemical substance” value (yeast gene YDR516C) was 1.8, the “level of expressed mRNA in the presence/in the absence of chemical substance” value (yeast gene YEL063C) was 0.8 and the “The level of expressed mRNA in the presence of chemical substance/The level of expressed mRNA in the absence of chemical substance” value (yeast gene YER026C) was 0.9. The “The level of expressed mRNA in the presence of chemical substance/The level of expressed mRNA in the absence of chemical substance” value (yeast gene YER053C) was 1.3, the “The level of expressed mRNA in the presence of chemical substance/The level of expressed mRNA in the absence of chemical substance” value (yeast gene YER069W) was 0.8 and the “level of expressed mRNA in the presence/in the absence of chemical substance” value (yeast gene YER081W) was 1.8. For the same compound, the “The level of expressed mRNA in the presence of chemical substance/The level of expressed mRNA in the absence of chemical substance” value (yeast gene YER096W) was 7.5 and the “level of expressed mRNA in the presence/in the absence of chemical substance” value (yeast gene YER120W) was 0.8.
